From PubChem BioAssay (NCI)
Several values for one entry are separate records, joined by “and”; a condition that tells them apart may be missing. Equal values may be shown once.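 Growth conditions: 96-well plates. Treatment: test compound, 48 hours, 5 concentrations. Analysis: linear interpolation between bracketing concentrations; unreached endpoints set to highest concentration. Abbreviation: GI50, concentration required for 50% inhibition of growth. TGI marks complete inhibition of growth.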

test system: MDA-MB-468 breast; assay: DTP human tumour cell line panel, 48 h

Which results are given for `COC(=O)c1ccc2[nH]c(O)c(C(=Nc3ccc(N(C)C(=O)CN4CCN(C)CC4)cc3)c3ccc(OC)cc3)c2c1`?
GI50: 1.6 µM; TGI: 3.35 µM

With `O=C(/C=C/c1cccc(O)c1)c1cccc(-n2cc(-c3ccc(Cl)cc3)[nH]c2=O)c1` as the compound, how does the GI50 read?
The GI50 was 1.7 µM.

And the TGI?
Its TGI is 3.83 µM.

What does the source list for `CC(=O)Nc1cccc(C#Cc2cncnc2Nc2ccc(OCc3cccc(F)c3)c(Cl)c2)n1`?
GI50: 0.557 µM; TGI: > 6.26 µM

How did the GI50 turn out when `CCOC(=O)c1ccc2c(c1)c1c(C)c3cnccc3c(C)c1n2C` was run?
The GI50 was 0.289 µM.

What about the TGI of the same compound?
The TGI was 0.962 µM.

Which results are given for `CC(=O)N1CCN([C@H]2CCC[C@@H](NC(=O)c3cc4c(F)ccc(C)c4[nH]3)C2)CC1`?
GI50: 9.06 µM; TGI: 37.2 µM

Which GI50 does the source give for `COC(=O)/C=C1/SC(=Nc2ccc(C(F)(F)F)cc2)N(CCc2c[nH]c3ccc(O)cc23)C1=O` here?
Its GI50 is 2.11 µM.

What about the TGI of the same compound?
The TGI was 5.72 µM.

`Cc1ccc2cc3c(N)c4c(C)ccc(C)c4nc3nc2c1` was tested. Which GI50 did it give?
Its GI50 is 1.47 µM.

And the TGI?
The TGI was 3.73 µM.

Which GI50 does the source give for `CCCc1n(Cc2ccc3ccccc3c2)c2ccccc2[n+]1Cc1ccc2ccccc2c1` here?
The GI50 was 0.13 µM.

What about the TGI of the same compound?
The TGI was 0.716 µM.

With `COc1ccc(C(O)c2cc3c(N)c(C(=O)Nc4ccc(Br)cc4)sc3nc2C)cc1` (centres undefined) as the compound, how does the GI50 read?
Its GI50 is 2.19 µM.

And the TGI?
Its TGI is 9.09 µM.

`CC(=O)O[C@H]1C(=O)[C@@]2(C)[C@H]([C@H](OC(=O)c3ccccc3)[C@]3(O)C[C@H](OC(=O)[C@H](OC(=O)OC[C@@H]4COC(C)(C)O4)[C@@H](NC(=O)c4ccccc4)c4ccccc4)C(C)=C1C3(C)C)[C@]1(OC(C)=O)CO[C@@H]1C[C@@H]2O` was tested. Which GI50 did it give?
Its GI50 is 0.028 µM.

`CC[C@H](Nc1cc(C)nc(N)n1)c1nc2cccc(NCc3ccc(C(=O)NO)cc3)c2c(=O)n1-c1ccccc1` was tested. Which GI50 did it give?
The GI50 was 1.46 µM.

What about the TGI of the same compound?
The TGI was 3.24 µM.

How did the GI50 turn out when `CC(C)OC(=O)Nc1ccc(-c2nc(-c3cccc(OCCN4CCOCC4)c3)c(-c3ccnc(Br)c3)[nH]2)cc1` was run?
The GI50 was 2.01 µM.

What about the TGI of the same compound?
The TGI was 5.3 µM.

What does the source list for `Clc1ccc(-c2ccc(CNCC3CCNCC3)o2)c(-c2ccccc2)c1`?
GI50: 1.57 µM; TGI: 3.25 µM

What does the source list for `O=C(Nc1ccc(OCc2nnc(-c3ccc(Cl)cc3)o2)c(F)c1)Nc1ccc(Cl)c(Cl)c1`?
GI50: 2.99 µM; TGI: 17.7 µM

With `COC(=O)C(=Cc1ccccc1[N+](=O)[O-])C(=O)OC` as the compound, how does the GI50 read?
The GI50 was 5.03 µM.

What about the TGI of the same compound?
Its TGI is 28.2 µM.

How did the GI50 turn out when `Cc1ccc2c(c1)c(C1=C(c3cn(C)c4ccccc34)C(=O)NC1=O)cn2C` was run?
The GI50 was 1.03 µM.

What about the TGI of the same compound?
Its TGI is greater than 12.6 µM.

Which GI50 does the source give for `FC(F)(F)c1cc(Nc2cccc(Oc3ccc(NC4=NCCN4)nc3)c2)ccc1Cl` here?
The GI50 was 1.61 µM.

And the TGI?
Its TGI is 3.44 µM.

Which GI50 does the source give for `COc1cc(C(=O)/C=C/c2c(C)n([O-])c3ccc(C(F)(F)F)cc3[n+]2=O)cc(OC)c1OC` here?
The GI50 was 1.59 µM.

What about the TGI of the same compound?
The TGI was 3.49 µM.

Which GI50 does the source give for `O=C1C=C(Nc2ccc([N+](=O)[O-])cc2)c2ccccc2C1=O` here?
The GI50 was 3.05 µM.

What about the TGI of the same compound?
The TGI was 13.4 µM.

Which GI50 does the source give for `COc1ccc(/C=C/C(=O)c2ccc(NC(=O)CSc3nnc(-c4ccc(OC)c(OC)c4)n3-c3ccccc3)cc2)cc1` here?
The GI50 was 1.96 µM.

And the TGI?
Its TGI is 4.55 µM.

Which GI50 does the source give for `C=CC(=O)N1CC2(CCC(n3nc(-c4ccc(Oc5ccccc5)cc4)c4c(N)ncnc43)CC2)C1` here?
Its GI50 is 0.244 µM.

What about the TGI of the same compound?
Its TGI is 1.62 µM.

Which GI50 does the source give for `COC12COC(=O)C1C(c1ccc3c(c1)OCO3)c1cc3c(cc1O2)OCO3` (centres undefined) here?
The GI50 was 23 µM.

And the TGI?
The TGI was greater than 100 µM.

How did the GI50 turn out when `CC/C(=C(\c1ccc(Cl)cc1)c1ccc(OCCN2CCCCC2)cc1)c1ccc(O)cc1` was run?
The GI50 was 1.65 µM.

What about the TGI of the same compound?
Its TGI is 3.32 µM.

With `Cc1cc2nc3c4cc(C=O)ccc4n(CCN(C)C)c3nc2cc1C` as the compound, how does the GI50 read?
The GI50 was 1.16 µM.

And the TGI?
The TGI was 3.21 µM.

Which GI50 does the source give for `CC#CC#Cc1cccc(=O)o1` here?
Its GI50 is 1.71 µM.

What about the TGI of the same compound?
The TGI was 5.32 µM.

Which GI50 does the source give for `C[C@@H]1CN(c2ccc3ncc(C#Cc4cncc(C(=O)Nc5ccc(CN6CCN(C)CC6)c(C(F)(F)F)c5)c4)n3n2)C[C@H](C)O1` here?
Its GI50 is 0.0355 µM.

What about the TGI of the same compound?
The TGI was 0.136 µM.

How did the GI50 turn out when `CN1CCN(Cc2ccc(NC(=O)c3cncc(C#Cc4cnc5ccc(N6CCN(C)CC6)nn45)c3)cc2C(F)(F)F)CC1` was run?
Its GI50 is 1.38 µM.

And the TGI?
Its TGI is 2.76 µM.

`CCN(CC)CCNc1ccc(C)c2sc3ccccc3c(=O)c12` (tested in a mixture with another compound) was tested. Which GI50 did it give?
The GI50 was 2.06 µM and 1.98 µM.

What about the TGI of the same compound?
Its TGI is 4.22 µM and 4.3 µM.

How did the GI50 turn out when `Cn1cc(C2=C(c3cn(C)c4ccc(OCc5ccccc5)cc34)C(=O)NC2=O)c2ccccc21` was run?
Its GI50 is greater than 25 µM.

And the TGI?
The TGI was greater than 25 µM.

How did the GI50 turn out when `CCCOC(=O)c1ccc2c(c1)[N+](=O)C(C(=O)c1ccccc1)=C(C(F)(F)F)[N+]2=O` was run?
Its GI50 is 1.71 µM.

And the TGI?
The TGI was 3.51 µM.

With `COc1ccc(C2C(C#N)=C(N)Oc3c2sc2c(C)cccc32)cc1` (centres undefined) as the compound, how does the GI50 read?
The GI50 was 0.214 µM.

What about the TGI of the same compound?
The TGI was 0.641 µM.

`CCOC(=O)Nc1nc2cc(OC)c(OC)c(OC)c2s1` was tested. Which GI50 did it give?
The GI50 was greater than 100 µM.

What about the TGI of the same compound?
The TGI was greater than 100 µM.

Which results are given for `C[C@]12CC[C@@H]3c4ccc(O)cc4CC[C@H]3[C@@H]1CC[C@@H]2NS(=O)(=O)c1cccc(OC(F)(F)F)c1`?
GI50: 2.61 µM; TGI: 8.01 µM

Which GI50 does the source give for `C=CCSSC1N=CNc2nc[nH]c21` (centres undefined) here?
The GI50 was 0.319 µM.

And the TGI?
The TGI was 14.7 µM.

For `Nc1nonc1-c1nc2cnccc2n1C1CCCCC1`, which GI50 is on record?
The GI50 was 6.94 µM.

What about the TGI of the same compound?
Its TGI is greater than 25 µM.
